Experimental data reported in patent US20230271933A1, “HETEROCYCLIC IMMUNOMODULATOR” (Beijing Innocare Pharma Tech Co., Ltd., priority 2020, published 2023).

The compounds below were run against hERG potassium ion channel (Homo sapiens, UniProt Q12809) (assay: Blockade of the hERG potassium ion channel (whole cell patch clamp)). Settings: HEK293 cells stably overexpressing hERG, pH 7.4, tail current, read-out: The percentage of the inhibition to the hERG current at the solubility of 3 μM (n = 2).
Assay type: cell-based
Protocol: The effect of the compound of the present invention on possible arrhythmias was assessed by determining the blockade of the hERG potassium ion channel.
The experiment method was summarized as follows: • Extracellular fluid: 140 mM NaCl, 3.5 mM KCl, 1 mM MgCl2, 2 mM CaCl2, 10 mM D-glucose, 10 mM HEPES, 1.25 mM NaH2PO4, pH=7.4. • Electrode internal solution: 20 mM KCl, 115 mM K-aspartate, 1 mM MgCl2, 5 mM EGTA, 10 mM HEPES, 2 mM Na2-ATP, pH=7.2. • Compound solution: the compound to be tested was dissolved in DMSO and prepared into a stock solution having a concentration of 10 mM, then diluted into the concentration of 3 mM with DMSO, and then diluted into a solution having a concentration of 3 μM with the extracellular solution for subsequent use. • Cell culture: the HEK293 cell line with the stable hERG potassium channel overexpression (Creacell, Cat. No. A-0320) was cultured in a DMEM medium (Gibco, Cat. No. 11995-065) containing […] (Gibco, Cat. No. 1428478) and 0.8 mg/mL G418 (Amresco, Cat. No. E859-5G) at the culture temperature of 37° C. under the carbon dioxide concentration of […]. The spent medium was removed and the cells were washed once with PBS (Gibco, Cat. No. 1009-141). Then 1 mL TrypLE™ Express solution (Gibco, Cat. No. 12604021) was added and the cells were incubated at 37° C. […]. When the cells were detached from the bottom of the dish, 5 mL of complete medium preheated at 37° C. was added. The cell suspension was transferred to a sterile centrifuge tube and centrifuged at 1000 rpm for 5 minutes before cell collection. Cells were inoculated in 6 cm cell culture dishes at the cell inoculation volume of 2.5*10^5 per dish (final volume: 5 mL). Before the patch clamp detection experiment, 3*10^3 cells were plated on the cover slips, cultured in 24-well plates (final volume: 500 μL), and detected 18 hours later. • Voltage stimulation protocol by recording the whole-cell hERG potassium current with the whole cell patch clamp: after forming a whole-cell seal, the cell membrane voltage was clamped at −80 mV. The clamping voltage was depolarized from −80 mV to −50 mV and maintained for 0.5 seconds (as leakage current detection), then stepped to 30 mV and maintained for 2.5 seconds, then quickly returned to −50 mV and maintained for 4 seconds to excite the hERG channel tail current (Peak tail current), the hERG potassium current was recorded every other 10 seconds. Experiment data were collected with EPC-10 amplifier (HEKA) and stored in PatchMaster (HEKA v2x73) software. • Determination: A capillary glass tube (Sutter Instruments) was drawn into a recording electrode with a microelectrode drawing instrument (Sutter Instruments). The cell-loaded cover slip was removed from the 24-well plate placed in the incubator and then placed under an inverted microscope. […] In the whole-cell recording mode, the slow capacitance compensation was performed and the membrane capacitance and the series resistance were recorded, during which the leakage compensation was not applied. After the hERG tail current recorded with the whole cell was stabilized for 3-5 minutes, 8 mL of the compound-free extracellular fluid (blank control) and 8 mL of 3 μM solution of the compound to be tested were sequentially flowed through the recording bath with the gravity perfusion to act on the cells for 5 minutes (or to the current stabilization). The current detected for each cell in the compound-free extracellular fluid was served as its own control. […]

Chain of hERG potassium ion channel (Q12809 whole entry): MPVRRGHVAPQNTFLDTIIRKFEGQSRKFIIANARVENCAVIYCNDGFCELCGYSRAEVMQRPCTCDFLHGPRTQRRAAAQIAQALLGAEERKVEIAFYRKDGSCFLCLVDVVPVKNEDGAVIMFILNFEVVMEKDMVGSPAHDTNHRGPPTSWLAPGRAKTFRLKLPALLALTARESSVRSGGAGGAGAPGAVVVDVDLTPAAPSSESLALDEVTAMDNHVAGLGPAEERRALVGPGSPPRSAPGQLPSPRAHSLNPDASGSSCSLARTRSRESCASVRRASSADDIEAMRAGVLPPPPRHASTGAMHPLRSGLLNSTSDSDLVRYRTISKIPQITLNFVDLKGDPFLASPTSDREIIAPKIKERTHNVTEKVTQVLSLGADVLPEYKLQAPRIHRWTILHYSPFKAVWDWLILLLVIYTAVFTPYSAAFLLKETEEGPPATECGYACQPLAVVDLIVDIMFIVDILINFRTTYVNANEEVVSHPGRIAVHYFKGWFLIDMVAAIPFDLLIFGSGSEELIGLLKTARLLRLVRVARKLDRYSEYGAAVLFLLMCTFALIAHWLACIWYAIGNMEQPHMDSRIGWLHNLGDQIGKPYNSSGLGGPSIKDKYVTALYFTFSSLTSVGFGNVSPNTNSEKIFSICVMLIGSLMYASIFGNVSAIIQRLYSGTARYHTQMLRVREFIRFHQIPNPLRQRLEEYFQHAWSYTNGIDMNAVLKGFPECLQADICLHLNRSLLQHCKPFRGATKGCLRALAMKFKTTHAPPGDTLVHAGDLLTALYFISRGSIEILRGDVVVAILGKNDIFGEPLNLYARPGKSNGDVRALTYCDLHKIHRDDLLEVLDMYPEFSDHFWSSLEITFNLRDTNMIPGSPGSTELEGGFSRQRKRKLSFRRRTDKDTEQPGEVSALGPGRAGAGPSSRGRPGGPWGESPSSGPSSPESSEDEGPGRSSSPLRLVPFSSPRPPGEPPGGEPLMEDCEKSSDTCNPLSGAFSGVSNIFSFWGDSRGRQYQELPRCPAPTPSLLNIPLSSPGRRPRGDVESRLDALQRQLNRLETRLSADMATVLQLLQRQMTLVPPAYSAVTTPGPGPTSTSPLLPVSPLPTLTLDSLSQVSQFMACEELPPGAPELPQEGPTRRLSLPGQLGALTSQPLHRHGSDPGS

| Compound | inhibition at 5 min, 3 µM [%] |
| --- | --- |
| C[C@H](c1ccc(COc2cccc3c2CN([C@H]2CCC(=O)NC2=O)C3=O)cc1)N1CCN(c2ccc(C#N)cn2)CC1 [Compound 16, 6-(4-((R)-1-(4-(((2-((S)-2,6-dioxopiperidin-3-yl)-1-oxoisoindolin-4-yl)oxy)methyl)phenyl)-ethyl)piperazin-1-yl)nicotinonitrile] | 58 |
| C[C@H](c1ccc(COc2cccc3c2CN([C@H]2CCC(=O)NC2=O)C3=O)cc1)N1CCN(c2ccc(C#N)nc2)CC1 [Compound 21, 5-(4-((R)-1-(4-(((2-((S)-2,6-dioxopiperidin-3-yl)-1-oxoisoindolin-4-yl)oxy)methyl)phenyl)ethyl)piperazin-1-yl)-2-cyanopyridine] | 49 |
| C[C@H](c1ccc(COc2cccc3c2CN([C@H]2CCC(=O)NC2=O)C3=O)cc1)N1CCN(c2ncc(C#N)cc2F)CC1 [Compound 22, 6-(4-((R)-1-(4-(((2-((S)-2,6-dioxopiperidin-3-yl)-1-oxoisoindolin-4-yl)oxy)methyl)phenyl)-ethyl)piperazin-1-yl)-5-fluoronicotinonitrile] | 20 |
| C[C@H](c1ccc(COc2cccc3c2CN([C@H]2CCC(=O)NC2=O)C3=O)cc1)N1CCN(c2ccc(C#N)cc2F)CC1 [Compound 6, 4-(4-((R)-1-(4-(((2-((S)-2,6-dioxopiperidin-3-yl)-1-oxoisoindolin-4-yl)oxy)methyl)phenyl)ethyl)piperazin-1-yl)-3-fluorobenzonitrile] | 52 |
